How the values were obtained:
[1] = biological target: T1, Tyrosine-protein kinase Lck (Homo sapiens, UniProt P06239); assay: Inhibitory activity against lck
[2] = biological target: T1, Tyrosine-protein kinase Lck; assay: Inhibitory activity against anti-CD3 mAb-induced IL2 production in human whole blood; type: functional, tissue-based
[3] = biological target: Tyrosine-protein kinase Fyn (Homo sapiens, UniProt P06241); assay: Inhibitory activity against fyn
[4] = Half life in mouse; type: ADME, organism-based; details: in vivo
[5] = Oral bioavailability in mouse; type: ADME, organism-based; details: in vivo
[6] = biological target: Proto-oncogene tyrosine-protein kinase LCK (Mus musculus) (UniProt P06240)
[7] = biological target: Proto-oncogene tyrosine-protein kinase Src (Homo sapiens, UniProt P12931); assay: Inhibitory activity against src
[8] = Volume of distribution in mouse; type: ADME, organism-based; details: in vivo, read-out: Vdss
[9] = biological target: Tyrosine-protein kinase SYK (Homo sapiens, UniProt P43405); assay: Inhibitory activity against Syk
[10] = biological target: T2, Tyrosine-protein kinase ZAP-70 (Homo sapiens, UniProt P43403); assay: Inhibitory activity against ZAP70
T2 sequence (P43403 whole entry): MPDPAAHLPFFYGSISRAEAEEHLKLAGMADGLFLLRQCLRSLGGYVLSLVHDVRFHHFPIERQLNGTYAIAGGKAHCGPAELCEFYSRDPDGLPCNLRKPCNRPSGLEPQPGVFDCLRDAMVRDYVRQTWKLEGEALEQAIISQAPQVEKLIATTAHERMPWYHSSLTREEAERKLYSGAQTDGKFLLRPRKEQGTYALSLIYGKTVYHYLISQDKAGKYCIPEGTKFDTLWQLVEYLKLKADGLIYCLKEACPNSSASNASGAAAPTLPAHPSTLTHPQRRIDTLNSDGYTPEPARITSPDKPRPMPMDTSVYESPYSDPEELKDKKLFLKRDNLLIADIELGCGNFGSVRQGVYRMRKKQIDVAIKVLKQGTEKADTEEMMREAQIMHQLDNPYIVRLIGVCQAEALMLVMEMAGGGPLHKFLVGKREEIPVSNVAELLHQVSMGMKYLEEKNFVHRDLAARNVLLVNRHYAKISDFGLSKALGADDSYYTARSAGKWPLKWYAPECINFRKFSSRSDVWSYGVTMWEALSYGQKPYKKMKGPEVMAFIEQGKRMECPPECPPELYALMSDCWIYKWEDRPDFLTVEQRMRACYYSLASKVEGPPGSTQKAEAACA

[11] = Half life in rat; type: ADME, organism-based; details: in vivo
Rattus norvegicus [12] = assay: Plasma concentration in rat at 5 mg/kg/day; type: ADME, organism-based; details: in vivo
[13] = Oral bioavailability in rat; type: ADME, organism-based; details: in vivo
Rattus norvegicus [14] = assay: Plasma concentration in rat at 10 mg/kg/day; type: ADME, organism-based; details: in vivo
[15] = biological target: Mitogen-activated protein kinase kinase kinase 8 (Homo sapiens, UniProt P41279); assay: Inhibitory activity against COT
[16] = biological target: Tyrosine-protein kinase Lyn (Homo sapiens, UniProt P07948); assay: Inhibitory activity against lyn
[17] = Plasma clearance in mouse; type: ADME, organism-based
[18] = biological target: Proto-oncogene tyrosine-protein kinase LCK (Mus musculus, UniProt P06240); assay: Inhibition of TCR stimulated IL2 production in mice administered orally; type: functional
[19] = Tmax in rat; type: ADME, organism-based; details: in vivo
Angiopoietin-1 receptor = Angiopoietin-1 receptor (Homo sapiens, UniProt Q02763); assay: Inhibitory activity against tie2
[20] = Plasma clearance in rat; type: ADME, organism-based
[21] = Tmax in mouse; type: ADME, organism-based; details: in vivo
[22] = Cmax in mouse; type: ADME, organism-based; details: in vivo
[23] = Volume of distribution in rat; type: ADME, organism-based; details: in vivo, read-out: Vdss
[24] = Cmax in rat; type: ADME, organism-based; details: in vivo
[25] = biological target: Tyrosine-protein kinase Fgr (Homo sapiens, UniProt P09769); assay: Inhibitory activity against fgr
Rattus norvegicus [26] = species: Rattus norvegicus; assay: Plasma concentration in rat at […]; type: ADME, organism-based; details: in vivo

T1 sequence (P06239 whole entry): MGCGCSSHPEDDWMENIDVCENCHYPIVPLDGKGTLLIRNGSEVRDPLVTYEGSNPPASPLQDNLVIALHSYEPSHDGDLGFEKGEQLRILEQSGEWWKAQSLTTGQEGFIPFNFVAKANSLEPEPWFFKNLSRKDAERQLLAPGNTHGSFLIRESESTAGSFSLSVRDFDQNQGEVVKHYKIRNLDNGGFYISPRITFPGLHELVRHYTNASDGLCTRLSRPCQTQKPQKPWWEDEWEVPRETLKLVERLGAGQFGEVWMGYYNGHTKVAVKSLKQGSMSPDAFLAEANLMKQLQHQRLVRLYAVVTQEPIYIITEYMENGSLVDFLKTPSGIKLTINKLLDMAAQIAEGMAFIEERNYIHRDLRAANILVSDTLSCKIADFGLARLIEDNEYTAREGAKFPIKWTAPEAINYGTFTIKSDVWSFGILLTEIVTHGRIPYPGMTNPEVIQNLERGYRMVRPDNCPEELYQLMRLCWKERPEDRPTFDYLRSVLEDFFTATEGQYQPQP
Sequence of Tyrosine-protein kinase Fyn (P06241 whole entry): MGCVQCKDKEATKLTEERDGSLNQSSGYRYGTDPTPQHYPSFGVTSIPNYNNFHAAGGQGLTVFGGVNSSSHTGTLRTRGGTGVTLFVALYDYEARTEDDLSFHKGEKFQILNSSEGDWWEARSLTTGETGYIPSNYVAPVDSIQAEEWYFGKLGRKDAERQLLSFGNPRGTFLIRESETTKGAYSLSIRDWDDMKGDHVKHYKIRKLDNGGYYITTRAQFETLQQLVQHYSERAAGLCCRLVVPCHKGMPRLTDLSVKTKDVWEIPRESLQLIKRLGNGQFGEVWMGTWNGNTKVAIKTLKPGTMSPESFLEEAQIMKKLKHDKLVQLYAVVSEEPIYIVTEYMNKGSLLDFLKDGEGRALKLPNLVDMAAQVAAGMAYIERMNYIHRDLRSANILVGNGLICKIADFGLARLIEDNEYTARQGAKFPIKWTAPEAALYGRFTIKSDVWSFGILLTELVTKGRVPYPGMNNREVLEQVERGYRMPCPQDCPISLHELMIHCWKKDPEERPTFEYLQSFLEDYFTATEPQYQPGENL
Sequence of Proto-oncogene tyrosine-protein kinase LCK (Mus musculus) (P06240 2-509 limits assumed): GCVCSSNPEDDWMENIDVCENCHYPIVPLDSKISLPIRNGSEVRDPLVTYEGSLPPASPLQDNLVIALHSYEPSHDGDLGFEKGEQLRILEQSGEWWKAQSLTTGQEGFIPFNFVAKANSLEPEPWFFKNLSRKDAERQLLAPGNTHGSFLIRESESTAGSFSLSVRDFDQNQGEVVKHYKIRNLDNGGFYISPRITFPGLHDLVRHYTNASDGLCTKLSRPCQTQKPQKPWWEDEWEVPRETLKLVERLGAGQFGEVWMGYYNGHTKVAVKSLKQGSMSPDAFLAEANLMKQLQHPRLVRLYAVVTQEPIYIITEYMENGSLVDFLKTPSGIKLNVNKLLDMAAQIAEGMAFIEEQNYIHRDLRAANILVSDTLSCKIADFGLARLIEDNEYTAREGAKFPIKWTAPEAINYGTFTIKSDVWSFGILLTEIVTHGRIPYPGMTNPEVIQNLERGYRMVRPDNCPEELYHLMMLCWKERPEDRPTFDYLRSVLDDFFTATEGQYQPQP
Sequence of Angiopoietin-1 receptor (Q02763 whole entry): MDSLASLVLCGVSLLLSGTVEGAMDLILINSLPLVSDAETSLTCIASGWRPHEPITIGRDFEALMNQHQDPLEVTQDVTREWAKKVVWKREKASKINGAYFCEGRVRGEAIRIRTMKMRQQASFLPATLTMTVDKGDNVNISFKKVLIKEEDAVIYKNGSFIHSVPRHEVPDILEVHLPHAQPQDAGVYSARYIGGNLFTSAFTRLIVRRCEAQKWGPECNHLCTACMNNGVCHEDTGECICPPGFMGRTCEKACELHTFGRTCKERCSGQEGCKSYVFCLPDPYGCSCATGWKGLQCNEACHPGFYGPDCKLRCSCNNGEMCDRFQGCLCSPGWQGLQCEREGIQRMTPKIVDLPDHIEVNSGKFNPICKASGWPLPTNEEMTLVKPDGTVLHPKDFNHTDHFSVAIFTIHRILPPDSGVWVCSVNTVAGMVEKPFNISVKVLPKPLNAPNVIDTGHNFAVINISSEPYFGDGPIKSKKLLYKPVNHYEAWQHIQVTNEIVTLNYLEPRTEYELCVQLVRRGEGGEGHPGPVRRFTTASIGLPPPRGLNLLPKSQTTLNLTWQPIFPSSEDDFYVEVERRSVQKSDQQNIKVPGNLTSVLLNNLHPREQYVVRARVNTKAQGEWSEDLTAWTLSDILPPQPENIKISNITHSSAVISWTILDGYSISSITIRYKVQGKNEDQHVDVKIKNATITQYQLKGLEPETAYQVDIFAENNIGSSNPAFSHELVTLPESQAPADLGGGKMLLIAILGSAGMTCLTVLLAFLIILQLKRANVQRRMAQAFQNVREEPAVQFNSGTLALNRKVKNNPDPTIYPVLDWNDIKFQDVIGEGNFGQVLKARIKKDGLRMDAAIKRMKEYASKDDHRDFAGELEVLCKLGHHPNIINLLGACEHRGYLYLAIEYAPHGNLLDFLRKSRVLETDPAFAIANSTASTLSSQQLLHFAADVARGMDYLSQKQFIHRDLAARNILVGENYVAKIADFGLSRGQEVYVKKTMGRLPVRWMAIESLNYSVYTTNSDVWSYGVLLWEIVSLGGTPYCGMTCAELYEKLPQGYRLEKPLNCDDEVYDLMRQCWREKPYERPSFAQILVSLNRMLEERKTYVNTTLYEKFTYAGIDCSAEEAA
Sequence of Tyrosine-protein kinase Lyn (P07948 whole entry): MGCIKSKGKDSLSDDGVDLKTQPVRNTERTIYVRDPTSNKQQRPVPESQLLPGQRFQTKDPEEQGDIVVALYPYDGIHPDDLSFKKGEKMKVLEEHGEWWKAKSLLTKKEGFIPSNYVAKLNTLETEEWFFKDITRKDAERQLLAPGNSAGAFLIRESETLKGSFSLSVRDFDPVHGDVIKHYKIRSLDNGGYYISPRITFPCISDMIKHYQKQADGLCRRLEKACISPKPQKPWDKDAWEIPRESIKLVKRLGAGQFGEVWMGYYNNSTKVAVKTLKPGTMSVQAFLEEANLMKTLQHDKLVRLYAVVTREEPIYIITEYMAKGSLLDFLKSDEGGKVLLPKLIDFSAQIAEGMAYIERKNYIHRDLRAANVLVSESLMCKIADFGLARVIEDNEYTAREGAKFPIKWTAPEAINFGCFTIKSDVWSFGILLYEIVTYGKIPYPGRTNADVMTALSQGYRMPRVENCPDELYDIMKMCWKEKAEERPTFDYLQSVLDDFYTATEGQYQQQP
Sequence of Mitogen-activated protein kinase kinase kinase 8 (P41279 whole entry): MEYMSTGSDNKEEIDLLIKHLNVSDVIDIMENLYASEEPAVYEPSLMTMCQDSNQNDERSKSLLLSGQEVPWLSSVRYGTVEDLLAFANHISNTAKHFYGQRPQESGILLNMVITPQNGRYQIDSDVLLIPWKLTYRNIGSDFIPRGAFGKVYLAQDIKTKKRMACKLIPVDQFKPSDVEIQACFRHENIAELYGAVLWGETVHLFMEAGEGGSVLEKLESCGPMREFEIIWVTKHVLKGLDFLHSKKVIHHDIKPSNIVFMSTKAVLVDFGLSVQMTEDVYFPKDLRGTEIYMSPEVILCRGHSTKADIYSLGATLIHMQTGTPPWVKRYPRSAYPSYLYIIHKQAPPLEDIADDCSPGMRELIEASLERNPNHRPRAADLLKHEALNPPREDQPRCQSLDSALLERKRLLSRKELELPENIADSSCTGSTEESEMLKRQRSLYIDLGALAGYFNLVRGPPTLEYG
Sequence of Proto-oncogene tyrosine-protein kinase Src (P12931 2-536 limits assumed): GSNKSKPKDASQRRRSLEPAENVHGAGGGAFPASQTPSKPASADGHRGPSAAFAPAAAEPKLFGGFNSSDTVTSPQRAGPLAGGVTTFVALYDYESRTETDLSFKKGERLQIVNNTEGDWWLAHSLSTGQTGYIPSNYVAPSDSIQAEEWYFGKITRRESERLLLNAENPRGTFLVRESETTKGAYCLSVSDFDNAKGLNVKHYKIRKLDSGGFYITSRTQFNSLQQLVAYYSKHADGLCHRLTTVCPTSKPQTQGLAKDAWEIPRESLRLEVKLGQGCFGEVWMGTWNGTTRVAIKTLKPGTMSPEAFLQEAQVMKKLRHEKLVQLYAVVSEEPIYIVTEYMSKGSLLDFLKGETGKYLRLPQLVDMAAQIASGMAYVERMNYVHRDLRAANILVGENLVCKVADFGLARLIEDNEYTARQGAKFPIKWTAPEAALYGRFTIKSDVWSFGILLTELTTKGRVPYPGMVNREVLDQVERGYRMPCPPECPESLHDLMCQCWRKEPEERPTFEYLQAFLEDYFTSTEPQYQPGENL
Sequence of Proto-oncogene tyrosine-protein kinase LCK (P06240 whole entry): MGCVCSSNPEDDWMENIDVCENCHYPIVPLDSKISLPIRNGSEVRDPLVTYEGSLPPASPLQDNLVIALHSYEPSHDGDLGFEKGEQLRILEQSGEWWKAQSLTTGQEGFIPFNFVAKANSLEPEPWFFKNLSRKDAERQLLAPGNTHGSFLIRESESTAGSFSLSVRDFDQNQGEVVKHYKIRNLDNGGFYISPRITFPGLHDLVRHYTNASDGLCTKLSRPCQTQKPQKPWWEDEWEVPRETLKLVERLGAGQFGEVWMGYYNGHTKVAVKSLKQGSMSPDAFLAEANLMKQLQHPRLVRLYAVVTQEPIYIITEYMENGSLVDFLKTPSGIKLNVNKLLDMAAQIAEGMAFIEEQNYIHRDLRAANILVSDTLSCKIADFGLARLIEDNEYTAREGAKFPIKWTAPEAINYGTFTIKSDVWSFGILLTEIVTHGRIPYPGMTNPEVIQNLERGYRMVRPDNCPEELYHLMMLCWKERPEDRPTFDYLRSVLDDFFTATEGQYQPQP

SMILES: COc1cc(-c2nn(C3CCN(C)CC3)c3ncnc(N)c23)ccc1NC(=O)c1ccc(C(F)(F)F)cc1F
- IC50 [1]: 106 nM
- IC50 [2]: 30 nM
- IC50 [3]: > 50000 nM

SMILES: COc1cc(-c2nn(C3CCN(Cc4ccccc4)CC3)c3ncnc(N)c23)ccc1NC(=O)c1ccc(C(F)(F)F)cc1F
- IC50 [1]: 341 nM
- IC50 [2]: 540 nM
- IC50 [3]: > 50000 nM

SMILES: COc1cc(-c2nn(C3CCN(C4CCOCC4)CC3)c3ncnc(N)c23)ccc1NC(=O)c1cc(O)c2ccccc2n1
- IC50 [1]: 9180 nM
- IC50 [3]: > 50000 nM

SMILES: COc1cc(-c2nn(C3CCN(C4CCOCC4)CC3)c3ncnc(N)c23)ccc1NC(=O)c1nc2ccccc2n1C
- IC50 [1]: 318 nM
- IC50 [2]: 54 nM
- IC50 [3]: > 50000 nM

SMILES: COc1cc(-c2nn(C3CCN(C4CCOCC4)CC3)c3ncnc(N)c23)ccc1NC(=O)c1cc2ccccc2n1C
- IC50 [1]: 107 nM
- half-life [4]: 3.1 h
- bioavailability [5]: 93%
- IC50 [2]: 20 nM
- ED90 [6]: 15.5 mg/kg
- IC50 [3]: > 50000 nM

SMILES: COc1cc(-c2nn(C3CCN(C4CCN(C)CC4)CC3)c3ncnc(N)c23)ccc1NC(=O)c1ccc(C(F)(F)F)cc1F
- IC50 [1]: 23 nM
- IC50 [2]: 20 nM
- IC50 [3]: 1070 nM

SMILES: COc1cc(-c2nn(C3CCN(C4CCOCC4)CC3)c3ncnc(N)c23)ccc1NC(=O)c1ccc(C(F)(F)F)cc1F
- IC50 [1]: 102 nM
- IC50 [2]: 40 nM
- IC50 [3]: > 50000 nM

SMILES: COc1cc(-c2nn(C3CCN(C4CCOCC4)CC3)c3ncnc(N)c23)ccc1NC(=O)c1ccc(OC(F)(F)F)cc1
- IC50 [1]: 2350 nM
- IC50 [3]: > 50000 nM

SMILES: COc1cc(-c2nn(C3CCN(C4CCN(C(C)=O)CC4)CC3)c3ncnc(N)c23)ccc1NC(=O)c1ccc(C(F)(F)F)cc1F
- IC50 [1]: 93 nM
- IC50 [2]: 30 nM
- IC50 [3]: > 50000 nM

SMILES: COc1cc(-c2nn(C3CCN(C4CCN(C(C)=O)CC4)CC3)c3ncnc(N)c23)ccc1NC(=O)c1cc2ccccc2n1C
- IC50 [1]: 74 nM
- IC50 [7]: 17200 nM
- ED90 [6]: 19 mg/kg
- IC50 [3]: ≥ 50000 nM

SMILES: COc1cc(-c2nn(C3CCN(C4CCOCC4)CC3)c3ncnc(N)c23)ccc1NC(=O)c1cccc(O)c1
- IC50 [1]: 23200 nM
- IC50 [3]: > 50000 nM

SMILES: COc1cc(-c2nn(C3CCN(C4CCOCC4)CC3)c3ncnc(N)c23)ccc1NC(=O)c1ccc(C)cc1
- IC50 [1]: 8960 nM
- IC50 [3]: > 50000 nM

SMILES: COc1cc(-c2nn(C3CCN(C4CCOCC4)CC3)c3ncnc(N)c23)ccc1NC(=O)c1cc2cc(C(N)=O)ccc2n1C
- IC50 [1]: > 50000 nM
- IC50 [3]: > 50000 nM

SMILES: COc1cc(-c2nn(C3CCN(C4CCOCC4)CC3)c3ncnc(N)c23)ccc1NC(=O)c1cc2cc(Cl)ccc2n1C
- IC50 [1]: 54 nM
- IC50 [2]: 13 nM
- IC50 [3]: 13600 nM

SMILES: COc1cc(-c2nn(C3CCN(C4CCOCC4)CC3)c3ncnc(N)c23)ccc1NC(=O)c1ccc(N(C)C)cc1
- IC50 [1]: 106 nM
- IC50 [2]: 35 nM
- IC50 [3]: > 50000 nM

SMILES: COc1cc(-c2nn([C@H]3CC[C@H](N4CCN(C(C)=O)CC4)CC3)c3ncnc(N)c23)ccc1NC(=O)c1cc2ccccc2n1C
- Vd [8]: 10.3 L/kg
- IC50 [1]: 147 nM
- IC50 [9]: > 25000 nM
- IC50 [10]: > 25000 nM
- half-life [11]: 4.1 h
- half-life [4]: 4.7 h
- concentration (Rattus norvegicus [12]): 1060 nM
- bioavailability [13]: 52%
- concentration (Rattus norvegicus [14]): 2900 nM
- IC50 [15]: > 25000 nM
- IC50 [16]: 1180 nM
- bioavailability [5]: 27%
- clearance [17]: 25 mL/min/kg
- EC50 [18]: 78 nM
- Tmax [19]: 4.7 h
- IC50 (Angiopoietin-1 receptor): > 50000 nM
- IC50 [2]: 80 nM
- clearance [20]: 3.33 mL/min/kg
- Tmax [21]: 1 h
- Cmax [22]: 387 ng/mL
- Vd [23]: 1.2 L/kg
- Cmax [24]: 2080 ng/mL
- IC50 [25]: 14100 nM
- concentration (Rattus norvegicus [26]): 350 nM

SMILES: COc1cc(-c2nn(C3CCNCC3)c3ncnc(N)c23)ccc1NC(=O)c1ccc(C(F)(F)F)cc1F
- IC50 [1]: 80 nM
- IC50 [2]: 50 nM
- IC50 [3]: > 50000 nM

SMILES: COc1cc(-c2nn(C3CCN(C4CCOCC4)CC3)c3ncnc(N)c23)ccc1NC(=O)c1cc2cc(C#N)ccc2n1C
- IC50 [1]: 3480 nM
- IC50 [3]: 32500 nM

From ChEMBL document CHEMBL1148543, “Discovery of A-770041, a src-family selective orally active lck inhibitor that prevents organ allograft rejection” (Bioorg Med Chem Lett, 2006)
